“And” between values parts separate entries of the source, which are not always exact repeats. Equal entries are not always repeated.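 96-well plates; 48 h exposure; 5 concentrations. Endpoints by linear interpolation between flanking doses. Not reached: highest tested concentration assigned. Here, GI50 denotes the concentration required for 50% inhibition of growth. At the TGI there is no net growth.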 Bounds are passed on as bounds.

Data on 23 molecules can be found in PubChem BioAssay (NCI).

What all share (assay): inhibition of tumour cell growth, NCI panel, 48 h
Assay [1] relates to A549 NSCLC.
Assay [2] deals with CAKI-1 renal.
Assay [3] relates to HL-60(TB) leukemia.
Assay [4] relates to HOP-62 NSCLC.
Assay [5] concerns NCI-H460 lung.
For assay [6], the system named is NCI-H522 lung.
Assay [7] has as its system OVCAR-4 ovarian.
Assay [8] deals with SF-268 CNS.
The subject of assay [9] is SK-MEL-28 melanoma.
Assay [10] has as its system SK-OV-3 ovarian.
Assay [11] deals with SNB-75 CNS.
For assay [12], the system named is TK-10 renal.
Assay [13] deals with UACC-257 melanoma.
In assay [14] the test system is PC-3 prostate.

`Cc1c2n(c(=O)[nH]c1=O)C1OC(CO)C(O2)C1N=[N+]=[N-]` (configuration not stated): the TGI in assay [1], in assay [2], in [3], in assay [4], in [5] and in assay [6] was more than 100 µM in each case. Moreover, the TGI in [7], in assay [8], in [9], in assay [10], in assay [11] and in assay [12] was more than 100 µM in each case. Also, the TGI in [13] is more than 100 µM.
As to `COc1cc2c(c(OC)c1O)-c1ccc(SC)c(=O)cc1C(NC(C)=O)CC2` (configuration not stated), the TGI was more than 100 µM in [1]; more than 100 µM in assay [2]; more than 100 µM in assay [4]; more than 11 µM in [5]; more than 100 µM in assay [7]; more than 100 µM in [8]. Further, the TGI in [9], in assay [10], in assay [12] and in assay [13] was more than 100 µM throughout.
For the molecule `N/C(=N\N=C/c1ccc(O)c(O)c1O)NO`, the TGI in [1] is more than 100 µM; in assay [2], 55.3 µM; in assay [3], 41.4 µM; in assay [4] it was more than 56.4 µM; in [5], 32.4 µM; in assay [6], 52.9 µM. In addition, the TGI in [7] was 25.5 µM; in assay [8], more than 100 µM; in assay [9] it was more than 100 µM; in assay [10], more than 100 µM; in [11] it was more than 46.5 µM; in assay [13], more than 100 µM.
On to `O=C1OCN(c2ccccc2)C12CCN(Cc1ccccc1)CC2`, for which the TGI in assay [1] is more than 100 µM; in [2], more than 100 µM; in assay [3], more than 100 µM; in [4], more than 100 µM; in assay [5] it was 54.5 µM; in assay [7], more than 100 µM. Further, the TGI in assay [14] is more than 100 µM; in assay [8], more than 100 µM; in [9] it was 34 µM; in [10], more than 100 µM; in [11] it was 59.9 µM; in [12], more than 100 µM. The molecule also yielded a TGI in assay [13] of 31 µM.
Take `CC(=O)c1cccc(Nc2nc3ccccc3c3occc23)c1`: the TGI in assay [1] was more than 100 µM; in assay [2] it was more than 100 µM; in [3], more than 100 µM; in [4] it was 34.6 µM; in assay [5], more than 100 µM; in [7], 61.5 µM. Besides, the TGI in assay [14] is more than 100 µM; in assay [8], 86.7 µM; in [9], more than 100 µM; in assay [10] it was 40.8 µM; in assay [11] it was 45.2 µM; in assay [12], 38.5 µM. Also, in assay [13], the TGI is more than 100 µM.
With `CCN(CC)c1ccc2cc(C(N)=O)c(=N)oc2c1`, the TGI in assay [1] was more than 100 µM; in [2] it was more than 100 µM; in assay [3] it was more than 100 µM; in assay [4], more than 100 µM; in assay [5], more than 100 µM; in assay [7], 74.1 µM. Further, the TGI in assay [14] was 87.6 µM; in assay [8] it was more than 100 µM; in [9], more than 100 µM; in assay [10], more than 100 µM; in assay [11], more than 100 µM; in assay [13], more than 100 µM.
As for `C=C1C(=O)[C@@]23CC[C@H]4[C@@](C)(CCC[C@@]4(C)C(=O)OC)[C@@H]2CC[C@]1(O)C3`, the TGI is 10.4 µM and 10.6 µM in assay [1]; 2.96 µM in assay [2]; 1.35 µM and 0.967 µM in assay [3]; 34.7 µM in [4]; 3.45 µM and 13 µM in assay [5]; 2.94 µM in assay [6]. The TGI in assay [7] was 3.12 µM and 3.31 µM; in [8], 3 µM and 3.35 µM; in assay [9] it was 3.24 µM and 3.32 µM; in assay [10], 33.4 µM; in assay [11] it was 12 µM and 6.94 µM; in [13] it was 3.42 µM and 3.11 µM. Also, the GI50 in [3] is 270 nM; in assay [5] it was 1800 nM; in assay [7] it was 1690 nM; in [8], 1550 nM; in [11] it was 3.69 µM; in assay [13], 1970 nM.
For `S=C1NCCN1`, the TGI in assay [1], in [2], in [3], in assay [4], in assay [6] and in assay [7] was more than 100 µM each time. The TGI in assay [8], in assay [9], in [10], in [11], in assay [12] and in assay [13] was more than 100 µM throughout.
With `C[n+]1c2ccccc2c(NCC(=O)O)c2ccccc21`, the TGI in assay [1], in assay [2], in assay [3], in assay [4], in assay [5] and in assay [6] was more than 100 µM throughout. Moreover, the TGI in assay [7], in [8], in assay [10], in assay [11], in [12] and in assay [13] was more than 100 µM in each case.
For `Cc1ccc2c(c1)[nH]c(=S)n2C=C(C(N)=O)C(N)=O`, the TGI in assay [1], in assay [2], in assay [3], in assay [4], in [5] and in assay [7] was more than 100 µM throughout. Moreover, the TGI in assay [8], in [9], in assay [10], in assay [11], in assay [12] and in assay [13] was more than 100 µM in each case.
With `O=C1N(Cl)C(=O)C(c2ccc(Cl)cc2)(c2ccc(Cl)cc2)N1Cl`, the TGI in assay [1], in assay [2], in assay [3], in assay [5], in assay [6] and in [7] was more than 100 µM each time. Besides, the TGI in assay [8], in assay [9], in assay [10], in assay [11] and in assay [12] was more than 100 µM throughout.
Consider `COc1cccc(-c2nc3ccccc3c(=O)[nH]2)c1`, for which the TGI is 49.4 µM in [1]; 37.1 µM in [2]; more than 100 µM in assay [3]; 37.1 µM in assay [4]; 42 µM in assay [5]; 60.8 µM in assay [6]. The TGI was determined as 41.7 µM in assay [14]; 44.8 µM in assay [8]; 96.6 µM in [9]; 48.2 µM in assay [10]; 36.9 µM in [12]; 56.2 µM in assay [13].
For `COC(=O)NC(Nc1ccccn1)(C(F)(F)F)C(F)(F)F`, the TGI in assay [1], in assay [2], in [3], in assay [4], in assay [5] and in assay [6] was more than 100 µM in each case. Further, the TGI in [8], in [9], in assay [10], in assay [11], in assay [12] and in [13] was more than 100 µM each time.
With `S=C(N1CCN(c2ccc(Cl)c(Cl)c2)CC1)N1CCN(c2ccc(Cl)c(Cl)c2)CC1`, the TGI was 37.9 µM in assay [1]; 20.4 µM in assay [2]; 26.5 µM in [4]; 22.8 µM in [6]; 28.3 µM in assay [7]; 28.2 µM in assay [14]. The TGI was 32.4 µM in assay [8]; 28.7 µM in [9]; 25.1 µM in [10]; 26.1 µM in assay [12]; 30.9 µM in [13].
For `C=CCC1(O)CC(n2cc(C)c(=O)[nH]c2=O)OC1CO[Si](C)(C)C(C)(C)C` (configuration not stated), the TGI in assay [1], in assay [2], in assay [4], in assay [5], in assay [7] and in assay [14] was more than 100 µM throughout. For the same molecule, the TGI in [9], in [11] and in assay [13] was more than 100 µM throughout.
For the molecule `Cc1ccc(Cc2n[nH]c(=O)[nH]2)cc1`, the TGI in [1], in assay [2], in assay [3], in assay [4], in [5] and in assay [7] was more than 100 µM in each case. Further, the TGI in assay [14], in [9], in [10], in assay [11], in assay [12] and in assay [13] was more than 100 µM throughout.
In the case of `CC1(C)CCc2ccc(OCCC(=O)O)cc2O1`, the TGI in [1], in [2], in assay [3], in assay [4], in [5] and in assay [6] was more than 100 µM in each case. For the same molecule, the TGI in assay [7], in assay [8], in [10] and in assay [11] was more than 100 µM each time.
With `COc1c2c(cc3c1C(=O)c1c(O)cccc1C3=O)CC(O)CC2` (configuration not stated), the TGI is more than 100 µM in [1]; more than 100 µM in assay [2]; more than 100 µM in [3]; 46 µM in assay [4]; more than 100 µM in assay [5]; more than 100 µM in assay [7]. Further, the TGI in [14] is more than 100 µM; in [9], more than 100 µM; in assay [10], 59 µM; in assay [11], more than 100 µM; in assay [12] it was more than 100 µM; in assay [13], more than 100 µM.
Take `C1=CC2(C=CC13O[C@H](C1CCCCC1)[C@@H](C1CCCCC1)O3)O[C@H](C1CCCCC1)[C@@H](C1CCCCC1)O2`: the TGI in assay [1], in [2], in assay [3], in [4], in assay [5] and in [7] was more than 50 µM throughout. For the same molecule, the TGI in [14], in [8], in assay [9], in [10], in assay [11] and in assay [12] was more than 50 µM in each case. In assay [13], this molecule came in with a TGI of more than 50 µM.
Take `COc1ccc2c(c1)CC[C@@H]1[C@@H]2CC[C@]2(C)C(=O)/C(=C/c3ccc(N(C)C)cc3)C[C@@H]12`: the TGI was more than 100 µM in assay [1]; 71.7 µM in assay [2]; more than 100 µM in assay [3]; 44.8 µM in assay [4]; more than 100 µM in [5]; more than 100 µM in assay [7]. In addition, the TGI is more than 100 µM in assay [14]; 89.9 µM in assay [8]; more than 100 µM in assay [10]; 52.3 µM in assay [11]; 96.9 µM in assay [12].
For `Cn1c(=O)c2c3ccccc3n(C)c2n(C)c1=O`, the TGI in [1], in assay [2], in [3], in [4], in assay [6] and in assay [7] was more than 100 µM throughout. For the same molecule, the TGI in assay [8] is more than 100 µM; in assay [10], 83.9 µM; in assay [11], more than 100 µM; in assay [12], more than 100 µM; in assay [13], more than 100 µM.
Consider `N#Cc1cccc2c1Sc1ccccc1N2`, for which the TGI in assay [1], in assay [2], in [3], in assay [5], in assay [14] and in assay [8] was more than 100 µM throughout. The TGI in assay [10] is more than 100 µM; in assay [11] it was 3.15 µM; in [12] it was 75.8 µM; in assay [13], more than 100 µM.
For the molecule `C=C(C)[C@@H]1CCC2=C[C@@H](OC2=O)[C@@H](C(=C)C)C2=CC(C(=O)O)=C(C1)O2`, the TGI in [1], in [2], in assay [3], in assay [4], in [6] and in assay [7] was more than 100 µM each time. The TGI in assay [8], in assay [10], in [11], in [12] and in [13] was more than 100 µM each time.
